Publication PMC6430017, “Structural and chemical insights into the covalent-allosteric inhibition of the protein kinase Akt” (Chemical Science, 2019)

Assays:
SYK = SYK (Homo sapiens, UniProt P43405); test: SelectScreen Z'LYTE kinase profiling; assay type: biochemical; details: ATP at apparent KM
Description: (§1) protein kinases at a compound concentration of 1 µM. Measurements were performed in duplicates
(§2) and at the particular apparent ATP KM of each individual kinase employing the activity based Z’LYTE®
(§3) kinase assay of the SelectScreen® Kinase Profiling Services (ThermoFisher Scientific).
(§4) kinases at a compound concentration of 1 µM. Measurements were performed in duplicates and at
(§5) the particular apparent ATP KM of each individual kinase employing the activity based Z’LYTE® kinase
(§6) assay of the SelectScreen® Kinase Profiling Services (ThermoFisher Scientific).

CHEK1 (CHK1) = target: T1, CHEK1 (CHK1) (Homo sapiens, UniProt O14757); test: SelectScreen Z'LYTE kinase profiling; assay type: biochemical; details: ATP at apparent KM
T1 sequence (O14757 1-476): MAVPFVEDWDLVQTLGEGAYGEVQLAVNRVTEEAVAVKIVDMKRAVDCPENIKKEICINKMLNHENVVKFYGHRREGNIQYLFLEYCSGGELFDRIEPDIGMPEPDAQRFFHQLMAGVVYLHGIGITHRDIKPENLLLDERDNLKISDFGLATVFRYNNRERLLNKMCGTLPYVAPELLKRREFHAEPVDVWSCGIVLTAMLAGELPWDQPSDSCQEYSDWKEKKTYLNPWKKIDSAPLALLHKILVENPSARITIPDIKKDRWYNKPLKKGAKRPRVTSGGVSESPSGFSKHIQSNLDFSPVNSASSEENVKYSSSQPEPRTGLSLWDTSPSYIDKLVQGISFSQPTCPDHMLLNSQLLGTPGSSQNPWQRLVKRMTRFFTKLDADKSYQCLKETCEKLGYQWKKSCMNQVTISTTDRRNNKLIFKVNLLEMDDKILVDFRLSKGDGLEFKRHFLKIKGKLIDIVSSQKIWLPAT
Description: as §1, §2, §3, §4, §5, §6

SRC = SRC (Homo sapiens, UniProt P12931); test: SelectScreen Z'LYTE kinase profiling; assay type: biochemical; details: ATP at apparent KM
SRC, sequence (P12931 whole entry): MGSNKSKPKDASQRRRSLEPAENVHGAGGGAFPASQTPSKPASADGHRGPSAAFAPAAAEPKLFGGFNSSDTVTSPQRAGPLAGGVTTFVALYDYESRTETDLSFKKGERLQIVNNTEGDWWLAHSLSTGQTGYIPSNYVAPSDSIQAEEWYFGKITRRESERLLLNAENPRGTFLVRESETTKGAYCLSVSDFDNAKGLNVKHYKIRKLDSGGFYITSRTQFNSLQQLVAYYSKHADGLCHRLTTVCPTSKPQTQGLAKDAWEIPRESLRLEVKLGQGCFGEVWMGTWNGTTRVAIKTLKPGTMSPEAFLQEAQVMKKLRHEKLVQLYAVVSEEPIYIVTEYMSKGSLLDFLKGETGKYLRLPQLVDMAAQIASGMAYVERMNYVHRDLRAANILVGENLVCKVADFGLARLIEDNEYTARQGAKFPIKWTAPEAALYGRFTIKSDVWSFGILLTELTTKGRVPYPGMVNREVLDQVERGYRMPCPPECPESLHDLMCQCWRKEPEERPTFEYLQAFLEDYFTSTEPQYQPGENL
Description: as §1, §2, §3, §4, §5, §6

ABL1 = ABL1 (Homo sapiens, UniProt P00519); test: SelectScreen Z'LYTE kinase profiling; assay type: biochemical; details: ATP at apparent KM
ABL1, sequence (P00519 whole entry): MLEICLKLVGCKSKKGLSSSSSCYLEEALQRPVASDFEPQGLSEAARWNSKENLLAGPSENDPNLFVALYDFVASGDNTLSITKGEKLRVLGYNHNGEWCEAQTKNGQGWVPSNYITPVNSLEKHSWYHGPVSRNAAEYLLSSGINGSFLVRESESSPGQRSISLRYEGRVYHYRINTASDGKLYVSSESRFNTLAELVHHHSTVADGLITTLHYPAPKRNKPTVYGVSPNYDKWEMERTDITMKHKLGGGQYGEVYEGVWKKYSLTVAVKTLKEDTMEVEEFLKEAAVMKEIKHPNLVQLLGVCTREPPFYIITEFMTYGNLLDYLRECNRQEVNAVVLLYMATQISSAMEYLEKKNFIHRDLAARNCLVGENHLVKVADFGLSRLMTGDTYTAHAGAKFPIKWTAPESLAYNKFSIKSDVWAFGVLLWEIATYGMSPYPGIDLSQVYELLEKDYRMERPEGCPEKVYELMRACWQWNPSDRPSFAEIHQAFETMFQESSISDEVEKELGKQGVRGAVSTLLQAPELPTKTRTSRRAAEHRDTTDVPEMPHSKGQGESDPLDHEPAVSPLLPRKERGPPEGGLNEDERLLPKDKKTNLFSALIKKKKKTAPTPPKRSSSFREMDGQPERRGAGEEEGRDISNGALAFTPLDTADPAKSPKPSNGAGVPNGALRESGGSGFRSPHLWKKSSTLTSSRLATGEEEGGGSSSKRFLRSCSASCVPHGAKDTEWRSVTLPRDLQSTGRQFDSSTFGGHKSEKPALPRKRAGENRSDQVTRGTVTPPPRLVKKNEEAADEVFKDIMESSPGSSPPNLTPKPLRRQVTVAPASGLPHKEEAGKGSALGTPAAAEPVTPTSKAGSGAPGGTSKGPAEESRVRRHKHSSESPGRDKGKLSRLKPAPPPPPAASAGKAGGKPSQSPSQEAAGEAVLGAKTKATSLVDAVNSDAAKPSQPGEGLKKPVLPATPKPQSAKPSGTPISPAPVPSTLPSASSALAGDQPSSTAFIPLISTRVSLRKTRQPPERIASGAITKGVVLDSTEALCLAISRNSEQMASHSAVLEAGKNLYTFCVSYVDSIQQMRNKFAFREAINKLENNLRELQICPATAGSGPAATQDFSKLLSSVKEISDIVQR
Description: as §1, §2, §3, §4, §5, §6

RET = RET (Homo sapiens, UniProt P07949); test: SelectScreen Z'LYTE kinase profiling; assay type: biochemical; details: ATP at apparent KM
RET, sequence (P07949 29-1114): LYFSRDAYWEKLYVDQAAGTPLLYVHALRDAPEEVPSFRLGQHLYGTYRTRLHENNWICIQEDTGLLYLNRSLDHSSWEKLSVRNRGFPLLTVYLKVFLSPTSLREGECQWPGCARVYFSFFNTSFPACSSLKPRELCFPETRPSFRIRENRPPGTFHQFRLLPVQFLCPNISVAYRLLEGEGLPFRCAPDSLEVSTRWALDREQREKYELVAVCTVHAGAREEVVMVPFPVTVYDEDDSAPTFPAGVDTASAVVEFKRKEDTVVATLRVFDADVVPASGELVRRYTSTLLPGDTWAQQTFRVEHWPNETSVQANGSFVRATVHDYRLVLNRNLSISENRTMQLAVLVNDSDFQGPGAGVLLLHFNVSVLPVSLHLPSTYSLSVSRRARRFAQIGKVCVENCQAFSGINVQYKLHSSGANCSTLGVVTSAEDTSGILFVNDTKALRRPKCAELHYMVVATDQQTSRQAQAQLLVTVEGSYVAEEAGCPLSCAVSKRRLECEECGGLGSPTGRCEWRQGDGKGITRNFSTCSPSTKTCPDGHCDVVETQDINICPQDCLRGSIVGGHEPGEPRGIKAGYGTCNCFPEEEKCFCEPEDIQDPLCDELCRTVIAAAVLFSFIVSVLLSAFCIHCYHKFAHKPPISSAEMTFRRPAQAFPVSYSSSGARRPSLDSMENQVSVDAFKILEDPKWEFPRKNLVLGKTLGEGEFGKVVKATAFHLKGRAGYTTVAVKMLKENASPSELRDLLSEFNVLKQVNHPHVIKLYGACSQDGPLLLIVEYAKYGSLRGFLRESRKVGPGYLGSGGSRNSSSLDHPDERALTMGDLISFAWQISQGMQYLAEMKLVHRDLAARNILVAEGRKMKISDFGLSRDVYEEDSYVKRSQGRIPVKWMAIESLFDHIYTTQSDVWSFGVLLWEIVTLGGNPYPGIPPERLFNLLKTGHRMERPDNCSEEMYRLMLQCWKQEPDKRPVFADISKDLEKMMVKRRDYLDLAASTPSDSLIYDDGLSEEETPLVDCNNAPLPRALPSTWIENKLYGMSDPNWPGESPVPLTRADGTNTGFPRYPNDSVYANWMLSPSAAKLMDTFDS
Description: as §1, §2, §3, §4, §5, §6

FLT3 = target: T2, FLT3 (Homo sapiens, UniProt P36888); test: SelectScreen Z'LYTE kinase profiling; assay type: biochemical; details: ATP at apparent KM
T2 sequence (P36888 27-993): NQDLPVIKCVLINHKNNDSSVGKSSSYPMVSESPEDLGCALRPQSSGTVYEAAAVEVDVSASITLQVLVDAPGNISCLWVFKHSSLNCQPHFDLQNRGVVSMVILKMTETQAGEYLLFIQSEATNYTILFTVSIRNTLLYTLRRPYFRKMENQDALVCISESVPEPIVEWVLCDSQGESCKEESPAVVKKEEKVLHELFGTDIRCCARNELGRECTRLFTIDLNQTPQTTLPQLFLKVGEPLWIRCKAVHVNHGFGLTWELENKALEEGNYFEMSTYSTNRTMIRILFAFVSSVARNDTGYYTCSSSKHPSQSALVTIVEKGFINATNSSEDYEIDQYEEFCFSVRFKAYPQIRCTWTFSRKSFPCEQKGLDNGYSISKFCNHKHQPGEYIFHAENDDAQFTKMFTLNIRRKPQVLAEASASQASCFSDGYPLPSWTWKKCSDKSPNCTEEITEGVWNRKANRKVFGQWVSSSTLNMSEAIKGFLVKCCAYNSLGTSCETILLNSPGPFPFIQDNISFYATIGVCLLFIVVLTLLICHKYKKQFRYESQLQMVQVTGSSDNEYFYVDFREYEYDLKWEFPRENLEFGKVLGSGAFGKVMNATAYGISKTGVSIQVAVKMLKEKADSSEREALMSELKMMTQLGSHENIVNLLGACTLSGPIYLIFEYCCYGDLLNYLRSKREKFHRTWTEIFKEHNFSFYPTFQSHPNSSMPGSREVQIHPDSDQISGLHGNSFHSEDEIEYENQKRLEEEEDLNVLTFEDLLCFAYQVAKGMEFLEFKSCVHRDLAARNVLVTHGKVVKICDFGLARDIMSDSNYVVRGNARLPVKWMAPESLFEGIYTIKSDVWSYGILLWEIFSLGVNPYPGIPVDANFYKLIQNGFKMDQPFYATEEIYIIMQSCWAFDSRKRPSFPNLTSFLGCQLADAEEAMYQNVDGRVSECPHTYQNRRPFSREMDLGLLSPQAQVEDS
Description: as §1, §2, §3, §4, §5, §6

PRKD2 (PKD2) = target: T3, PRKD2 (PKD2) (Homo sapiens, UniProt Q9BZL6); test: SelectScreen Z'LYTE kinase profiling; assay type: biochemical; details: ATP at apparent KM
T3 sequence (Q9BZL6 1-878): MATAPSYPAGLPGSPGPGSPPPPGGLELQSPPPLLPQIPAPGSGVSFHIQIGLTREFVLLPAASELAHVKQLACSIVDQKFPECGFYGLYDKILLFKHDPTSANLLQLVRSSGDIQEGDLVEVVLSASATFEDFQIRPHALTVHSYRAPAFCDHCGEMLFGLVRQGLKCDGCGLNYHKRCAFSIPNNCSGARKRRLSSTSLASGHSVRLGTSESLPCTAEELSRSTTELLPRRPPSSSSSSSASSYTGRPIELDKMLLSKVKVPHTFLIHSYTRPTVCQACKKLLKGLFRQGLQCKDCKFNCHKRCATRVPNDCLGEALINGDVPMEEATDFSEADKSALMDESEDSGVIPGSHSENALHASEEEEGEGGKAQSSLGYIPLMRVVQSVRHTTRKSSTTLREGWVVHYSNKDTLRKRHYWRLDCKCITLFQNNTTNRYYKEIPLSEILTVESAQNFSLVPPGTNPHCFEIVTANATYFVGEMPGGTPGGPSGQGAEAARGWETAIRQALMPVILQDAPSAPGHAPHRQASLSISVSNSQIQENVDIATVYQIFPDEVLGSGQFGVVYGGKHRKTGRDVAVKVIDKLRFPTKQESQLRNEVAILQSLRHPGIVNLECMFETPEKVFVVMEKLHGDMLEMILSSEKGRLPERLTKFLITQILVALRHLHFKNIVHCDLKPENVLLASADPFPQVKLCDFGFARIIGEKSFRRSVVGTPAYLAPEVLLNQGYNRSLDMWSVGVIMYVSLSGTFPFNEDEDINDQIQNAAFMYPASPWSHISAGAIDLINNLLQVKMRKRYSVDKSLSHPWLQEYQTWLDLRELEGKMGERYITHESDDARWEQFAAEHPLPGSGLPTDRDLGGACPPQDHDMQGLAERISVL
Description: as §1, §2, §3, §4, §5, §6

AMPK A1/B1/G1 = AMPK A1/B1/G1 (Homo sapiens, UniProt Q13131); test: SelectScreen Z'LYTE kinase profiling; assay type: biochemical; details: ATP at apparent KM
AMPK A1/B1/G1, sequence (Q13131 whole entry): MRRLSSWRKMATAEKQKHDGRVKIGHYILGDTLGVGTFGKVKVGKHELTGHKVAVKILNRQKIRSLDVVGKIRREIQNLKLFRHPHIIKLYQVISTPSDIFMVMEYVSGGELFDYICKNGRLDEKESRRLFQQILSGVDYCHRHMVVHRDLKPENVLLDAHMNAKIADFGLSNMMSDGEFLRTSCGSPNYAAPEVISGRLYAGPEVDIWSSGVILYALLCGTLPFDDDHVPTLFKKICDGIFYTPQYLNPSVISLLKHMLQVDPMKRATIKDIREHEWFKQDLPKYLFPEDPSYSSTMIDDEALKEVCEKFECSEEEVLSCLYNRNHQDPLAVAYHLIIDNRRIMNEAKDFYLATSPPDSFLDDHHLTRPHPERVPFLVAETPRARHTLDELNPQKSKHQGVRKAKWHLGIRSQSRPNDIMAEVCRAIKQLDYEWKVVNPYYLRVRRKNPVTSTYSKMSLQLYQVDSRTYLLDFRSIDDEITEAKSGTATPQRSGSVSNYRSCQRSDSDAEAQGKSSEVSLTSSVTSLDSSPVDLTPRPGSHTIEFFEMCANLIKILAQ
AMPK A1/B1/G1, sequence (Q9Y478 whole entry partner): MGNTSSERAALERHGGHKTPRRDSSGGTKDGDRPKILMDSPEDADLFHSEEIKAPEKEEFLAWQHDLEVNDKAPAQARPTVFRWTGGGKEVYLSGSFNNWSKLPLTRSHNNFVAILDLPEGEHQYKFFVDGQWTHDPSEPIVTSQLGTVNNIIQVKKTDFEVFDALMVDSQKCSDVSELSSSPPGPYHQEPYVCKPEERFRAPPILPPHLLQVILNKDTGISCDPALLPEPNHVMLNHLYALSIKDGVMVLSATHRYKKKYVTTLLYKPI
AMPK A1/B1/G1, sequence (P54619 whole entry partner): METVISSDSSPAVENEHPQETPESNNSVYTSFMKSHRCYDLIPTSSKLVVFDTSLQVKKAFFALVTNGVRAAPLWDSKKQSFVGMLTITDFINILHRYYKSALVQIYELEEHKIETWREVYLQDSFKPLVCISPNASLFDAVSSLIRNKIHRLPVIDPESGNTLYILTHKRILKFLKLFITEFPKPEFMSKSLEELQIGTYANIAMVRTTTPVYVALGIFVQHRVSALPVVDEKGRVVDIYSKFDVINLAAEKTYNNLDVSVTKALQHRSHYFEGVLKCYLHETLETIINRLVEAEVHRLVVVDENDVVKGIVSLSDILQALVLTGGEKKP
Description: as §1, §2, §3, §4, §5, §6

PIM1 = PIM1 (Homo sapiens, UniProt P11309); test: SelectScreen Z'LYTE kinase profiling; assay type: biochemical; details: ATP at apparent KM
PIM1, sequence (P11309 whole entry): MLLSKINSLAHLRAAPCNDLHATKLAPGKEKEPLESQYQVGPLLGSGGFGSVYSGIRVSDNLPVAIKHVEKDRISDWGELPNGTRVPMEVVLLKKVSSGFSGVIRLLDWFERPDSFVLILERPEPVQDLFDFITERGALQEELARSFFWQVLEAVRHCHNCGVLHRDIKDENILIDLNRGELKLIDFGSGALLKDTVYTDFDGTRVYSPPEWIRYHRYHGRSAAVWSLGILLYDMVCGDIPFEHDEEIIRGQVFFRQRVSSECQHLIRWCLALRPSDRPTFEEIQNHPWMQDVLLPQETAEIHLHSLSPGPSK
Description: as §1, §2, §3, §4, §5, §6

GRK6 = GRK6 (Homo sapiens, UniProt P43250); test: SelectScreen Z'LYTE kinase profiling; assay type: biochemical; details: ATP at apparent KM
GRK6, sequence (P43250 whole entry): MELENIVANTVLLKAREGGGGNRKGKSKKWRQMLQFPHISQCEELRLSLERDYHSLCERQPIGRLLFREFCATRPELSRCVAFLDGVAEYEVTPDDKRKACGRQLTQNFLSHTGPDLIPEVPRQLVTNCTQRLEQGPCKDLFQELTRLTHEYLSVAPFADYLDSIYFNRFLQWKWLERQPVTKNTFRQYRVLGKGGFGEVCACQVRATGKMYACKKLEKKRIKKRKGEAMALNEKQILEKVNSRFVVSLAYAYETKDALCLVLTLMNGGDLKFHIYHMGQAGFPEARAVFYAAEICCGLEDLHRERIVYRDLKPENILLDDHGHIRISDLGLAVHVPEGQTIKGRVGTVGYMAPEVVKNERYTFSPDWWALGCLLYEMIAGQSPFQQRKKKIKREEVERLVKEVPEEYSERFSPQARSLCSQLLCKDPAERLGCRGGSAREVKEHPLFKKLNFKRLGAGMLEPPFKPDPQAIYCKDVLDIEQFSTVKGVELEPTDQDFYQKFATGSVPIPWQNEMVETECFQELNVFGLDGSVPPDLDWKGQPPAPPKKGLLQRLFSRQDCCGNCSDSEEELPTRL
Description: as §1, §2, §3, §4, §5, §6

AKT1 (PKB alpha) = AKT1 (PKB alpha) (Homo sapiens, UniProt P31749); test: SelectScreen Z'LYTE kinase profiling; assay type: biochemical; details: ATP at apparent KM
Description: as §1, §2, §3, §4, §5, §6

AN3CA = test: Cell viability assay (CellTiter-Glo); assay type: cell-based; details: Homo sapiens, AN3-CA, 120 h; AN3CA (endometrium), day 5; read-out: Cell viability assay EC50
Description: Cell Culture and Viability Assay
analysis, cells were plated on day 0 into white 384-well cell culture plates (Greiner Bio-One) using a
Multidrop reagent dispenser (Thermo) at cell numbers that ensure linear and optimal luminescent
signal intensity (AN3-CA: 800 cells/well; BT-474: 400 cells/well; Dan-G: 400 cells/well; HPAF-II: 400
cells/well). Then the cells were incubated for 24 h in a humidified atmosphere at 37 °C/5 % CO2. The
cells were treated with inhibitors in serial dilutions ranging from 30 µM down to 0.1 nM using an Echo
520 acoustic liquid handler (Labcyte Inc.). Cell viability was analysed on day 5 using the CellTiter-Glo
assay (Promega) as per manufacturer’s instructions. Luminescence signal was recorded by an EnVision
Multilabel 2104 Plate Reader (PerkinElmer) with 500 ms integration time. All data were normalized to
the plate positive control (30 µM staurosporine) and negative control (DMSO). Finally, the data was
processed with the Quattro Software Suite using a four parameter logistic model. As a quality control,
the Z’-factor was calculated from 16 positive and negative control values. Only assay results showing
a Z’-factor ≥ 0.5 were used for further analysis. All experimental points were measured in duplicates
for each plate and were replicated in at least three times.

## C=CC(=O)Nc1cccc(C(=O)NC2CCN(Cc3ccc(-c4nc5cc[nH]c(=O)c5cc4-c4ccccc4)cc3)CC2)c1 [30b]
SYK
  inhibition at 1 µM: 15%
CHEK1 (CHK1)
  inhibition at 1 µM: 9%
SRC
  inhibition at 1 µM: 17%
ABL1
  inhibition at 1 µM: 3%
RET
  inhibition at 1 µM: 19%
FLT3
  inhibition at 1 µM: 14%
PRKD2 (PKD2)
  inhibition at 1 µM: 4%
AMPK A1/B1/G1
  inhibition at 1 µM: 46%
PIM1
  inhibition at 1 µM: -15%
GRK6
  inhibition at 1 µM: 3%

## C=CC(=O)Nc1ccc2c(c1)n(C1CCN(Cc3ccc(-c4nc5cc[nH]c(=O)c5cc4-c4ccccc4)cc3)CC1)c(=O)n2C [24b]
SYK
  inhibition at 1 µM: 4%
CHEK1 (CHK1)
  inhibition at 1 µM: -3%
SRC
  inhibition at 1 µM: 19%
AKT1 (PKB alpha)
  inhibition at 1 µM: 98%
ABL1
  inhibition at 1 µM: 2%
RET
  inhibition at 1 µM: 10%
FLT3
  inhibition at 1 µM: 7%
AN3CA
  EC50: 0.23 ± 0.075 µM
PRKD2 (PKD2)
  inhibition at 1 µM: 3%
AMPK A1/B1/G1
  inhibition at 1 µM: 17%
PIM1
  inhibition at 1 µM: -21%
GRK6
  inhibition at 1 µM: 0%

## C=CC(=O)Nc1cc(NC(=O)NC2CCN(Cc3ccc(-c4nc5cc[nH]c(=O)c5cc4-c4ccccc4)cc3)CC2)ccc1Cl [compound 27]
SYK
  inhibition at 1 µM: 5%
CHEK1 (CHK1)
  inhibition at 1 µM: 8%
SRC
  inhibition at 1 µM: 36%
ABL1
  inhibition at 1 µM: 3%
RET
  inhibition at 1 µM: 26%
FLT3
  inhibition at 1 µM: 14%
PRKD2 (PKD2)
  inhibition at 1 µM: 5%
AMPK A1/B1/G1
  inhibition at 1 µM: 76%
PIM1
  inhibition at 1 µM: -18%
